Test results taken from patent US20070004653A1, “Stable lyophilized anthracycline glycosides” (priority 2005, published 2007).

Assays:
[1] = Stability tests of Idarubicin HCl, 1% w/v aqueous solution, pH varied with NH4OH or HCl or dissolved as is (aglycone, bis-anhydro); type: physicochemical; settings: for % aglycone / % bis-anhydro: 1% w/v aqueous solution
Description: Starting product was idarubicin hydrochloride, 1% w/v aqueous solution, the analysis of which is shown in the data reported at t=0. 3% mol of NH4OH with respect to idarubicin hydrochloride was added to the solution at t=0 and the solution was incubated at 20° C. for the indicated time. The results in table 1 show the expected rise over time of the bis-anhydro degradation product at high pH (6.69), with very little increase of aglycone.
Starting product was idarubicin hydrochloride, 1% w/v aqueous solution, the analysis of which is shown in the data reported at t=0. 1% mol of NH4OH with respect to idarubicin hydrochloride was added to the solution at t=0 and the solution was incubated at 20° C. for the indicated time.
Starting product was idarubicin hydrochloride, 1% w/v aqueous solution, the analysis of which is shown in the data reported at t=0. 3% mol of NH4OH with respect to idarubicin hydrochloride was added to the solution at t=0 and the solution was incubated at 4° C. for the indicated time.
Starting product was idarubicin hydrochloride, 1% w/v aqueous solution, the analysis of which is shown in the data reported at t=0.1% mol of NH4OH with respect to idarubicin hydrochloride was added to the solution at t=0 and the solution was incubated at 4° C. for the indicated time.
Starting product was idarubicin hydrochloride, 1% w/v aqueous solution, the analysis of which is shown in the data reported at t=0. The solution was incubated for the indicated time at 20° C. without additional chemicals. The results in table 5 show the expected rise in bis-anhydro content.
Starting product was idarubicin hydrochloride, 1% w/v aqueous solution, the analysis of which is shown in the data reported at t=0. The solution was incubated for the indicated time at 4° C. without the addition of additional chemicals.The results in table 6 show a rise in bis-anhydro content, even at 4° C.
Starting product was idarubicin hydrochloride, 1% w/v aqueous solution. At t=0, the pH of the solution was lowered by the addition of 1% mol of HCl with respect to idarubicin hydrochloride. The solution was incubated for the indicated time at 20° C.
Starting product was idarubicin hydrochloride, 1% w/v aqueous solution. At t=0, the pH of the solution was lowered by the addition of 1% mol of HCl with respect to idarubicin hydrochloride. The solution was incubated for the indicated time at 4° C.
Starting product was idarubicin hydrochloride, 1% w/v aqueous solution. At t=0, the pH of the solution was lowered to 3.6 by the addition of 1.3% mol of HCl with respect to idarubicin hydrochloride. The solution was then incubated for the indicated time at 20° C.
Starting product was idarubicin hydrochloride, 1% w/v aqueous solution. At t=0, the pH of the solution was lowered to 3.55 by the addition of 1.5% mol of HCl with respect to idarubicin hydrochloride. The solution was then incubated for the indicated time at 20° C.
Starting product was idarubicin hydrochloride, 1% w/v aqueous solution. At t=0, the pH of the solution was lowered to 3.50 by the addition of 1.7% mol of HCl with respect to idarubicin hydrochloride.
Starting product was idarubicin hydrochloride, 1% w/v aqueous solution. At t=0, the pH of the solution was lowered to 3.03 by the addition of 6.5% mol of HCl with respect to idarubicin hydrochloride.
Starting product was idarubicin hydrochloride, 1% w/v aqueous solution. At t=0, the pH of the solution was lowered to 2.18 by the addition of 48% mol of HCl with respect to idarubicin hydrochloride.

[2] = cited from earlier work
[3] = HCl 1% mol, pH 3.91, 4° C., 169 hr
[4] = HCl 1% mol, pH 3.91, 4° C., 407 hr
[5] = HCl 1% mol, pH 3.91, 20° C., 28 hr
[6] = HCl 1% mol, pH 3.91, 20° C., 168 hr
[7] = HCl 1% mol, pH 3.91, 20° C., 406 hr
[8] = HCl to pH = 2.18 (extra HCl = 48% mol), 4° C., 30 hr
[9] = HCl to pH = 2.18 (extra HCl = 48% mol), 4° C., 119 hr
[10] = HCl to pH = 2.18 (extra HCl = 48% mol), 20° C., 27 hr
[11] = HCl to pH = 2.18 (extra HCl = 48% mol), 20° C., 118 hr
[12] = HCl to pH = 3.03 (extra HCl = 6.5% mol), 20° C., 366 hr
[13] = HCl to pH = 3.50 (extra HCl = 1.7% mol), 20° C., 366 hr
[14] = HCl to pH = 3.55 (extra HCl = 1.5% mol), 20° C., 366 hr
[15] = HCl to pH = 3.60 (extra HCl = 1.3% mol), 20° C., 366 hr
[16] = NH3 1% mol, pH 6.56, 4° C., 34 hr
[17] = NH3 1% mol, pH 6.56, 4° C., 56 hr
[18] = NH3 1% mol, pH 6.56, 4° C., 149 hr
[19] = NH3 1% mol, pH 6.56, 20° C., 29 hr
[20] = NH3 1% mol, pH 6.56, 20° C., 54 hr
[21] = NH3 1% mol, pH 6.56, 20° C., 146 hr
[22] = NH3 3% mol, pH 6.69, 4° C., 28 hr
[23] = NH3 3% mol, pH 6.69, 4° C., 129 hr
[24] = NH3 3% mol, pH 6.69, 20° C., 25 hr
[25] = NH3 3% mol, pH 6.69, 20° C., 122 hr
[26] = dissolved as is, pH 5.66, 4° C., 31 hr
[27] = dissolved as is, pH 5.66, 4° C., 154 hr
[28] = dissolved as is, pH 5.66, 20° C., 26 hr
[29] = dissolved as is, pH 5.66, 20° C., 57 hr
[30] = dissolved as is, pH 5.66, 20° C., 148 hr

For `CC(=O)[C@]1(O)Cc2c(O)c3c(c(O)c2[C@@H](O[C@H]2C[C@@H](N)[C@H](O)C(C)O2)C1)C(=O)c1ccccc1C3=O.Cl` (some centres unmarked) [Idarubicin HCl, Idarubicin hydrochloride], the “% aglycone” value ([1]; HCl 1% mol, pH 3.91, 4° C., 33 hr) was 0.57%, the “% aglycone” value [1, 3] was 0.58% and the “% bis-anhydro” value [1, 3] was 0.06%. The “% aglycone” value [1, 4] was 0.58%, the “% bis-anhydro” value [1, 4] was 0.05% and the “% aglycone” value ([1]; HCl 1% mol, pH 3.91, 4° C., t = 0) was 0.59%. For the same compound, the “% aglycone” value [1, 5] was 0.57%, the “% bis-anhydro” value [1, 5] was 0.04% and the “% aglycone” value [1, 6] was 0.58%. The “% bis-anhydro” value [1, 6] was 0.09%, the “% aglycone” value [1, 7] was 0.59% and the “% bis-anhydro” value [1, 7] was 0.25%. For the same compound, the “% aglycone” value ([1]; HCl 1% mol, pH 3.91, 20° C., t = 0) was 0.59%, the “% aglycone” value [1, 8] was 0.61% and the “% bis-anhydro” value [1, 8] was 0.06%. The “% aglycone” value [1, 9] was 0.63%, the “% bis-anhydro” value [1, 9] was 0.06% and the “% aglycone” value ([1]; HCl to pH = 2.18 (extra HCl = 48% mol), 4° C., t = 0) was 0.59%. For the same compound, the “% aglycone” value [1, 10] was 0.72%, the “% bis-anhydro” value [1, 10] was 0.06% and the “% aglycone” value [1, 11] was 1.03%. The “% bis-anhydro” value [1, 11] was 0.06%, the “% aglycone” value ([1]; HCl to pH = 2.18 (extra HCl = 48% mol), 20° C., t = 0) was 0.59% and the “% aglycone” value ([1]; HCl to pH = 3.03 (extra HCl = 6.5% mol), 4° C., 29 hr) was 0.61%. For the same compound, the “% aglycone” value ([1]; HCl to pH = 3.03 (extra HCl = 6.5% mol), 4° C., 80 hr) was 0.61%, the “% aglycone” value ([1]; HCl to pH = 3.03 (extra HCl = 6.5% mol), 4° C., 364 hr) was 0.61% and the “% aglycone” value ([1]; HCl to pH = 3.03 (extra HCl = 6.5% mol), 4° C., t = 0) was 0.59%. For the same compound, the “% aglycone” value ([1]; HCl to pH = 3.03 (extra HCl = 6.5% mol), 20° C., 22 hr) was 0.62%, the “% aglycone” value ([1]; HCl to pH = 3.03 (extra HCl = 6.5% mol), 20° C., 76 hr) was 0.63% and the “% aglycone” value ([1]; HCl to pH = 3.03 (extra HCl = 6.5% mol), 20° C., 124 hr) was 0.65%. For the same compound, the “% aglycone” value [1, 12] was 0.77%, the “% bis-anhydro” value [1, 12] was 0.04% and the “% aglycone” value ([1]; HCl to pH = 3.03 (extra HCl = 6.5% mol), 20° C., t = 0) was 0.59%. The “% aglycone” value ([1]; HCl to pH = 3.50 (extra HCl = 1.7% mol), 20° C., 22 hr) was 0.59%, the “% aglycone” value ([1]; HCl to pH = 3.50 (extra HCl = 1.7% mol), 20° C., 76 hr) was 0.59% and the “% aglycone” value ([1]; HCl to pH = 3.50 (extra HCl = 1.7% mol), 20° C., 124 hr) was 0.60%. For the same compound, the “% aglycone” value [1, 13] was 0.61%, the “% bis-anhydro” value [1, 13] was 0.01% and the “% aglycone” value ([1]; HCl to pH = 3.50 (extra HCl = 1.7% mol), 20° C., t = 0) was 0.59%. The “% aglycone” value ([1]; HCl to pH = 3.55 (extra HCl = 1.5% mol), 20° C., 22 hr) was 0.59%, the “% aglycone” value ([1]; HCl to pH = 3.55 (extra HCl = 1.5% mol), 20° C., 76 hr) was 0.59% and the “% aglycone” value ([1]; HCl to pH = 3.55 (extra HCl = 1.5% mol), 20° C., 124 hr) was 0.60%. The “% aglycone” value [1, 14] was 0.61%, the “% bis-anhydro” value [1, 14] was 0.01% and the “% aglycone” value ([1]; HCl to pH = 3.55 (extra HCl = 1.5% mol), 20° C., t = 0) was 0.59%. For the same compound, the “% aglycone” value ([1]; HCl to pH = 3.60 (extra HCl = 1.3% mol), 20° C., 22 hr) was 0.59%, the “% aglycone” value ([1]; HCl to pH = 3.60 (extra HCl = 1.3% mol), 20° C., 76 hr) was 0.59% and the “% aglycone” value ([1]; HCl to pH = 3.60 (extra HCl = 1.3% mol), 20° C., 124 hr) was 0.60%. The “% aglycone” value [1, 15] was 0.61%, the “% bis-anhydro” value [1, 15] was 0.01% and the “% aglycone” value ([1]; HCl to pH = 3.60 (extra HCl = 1.3% mol), 20° C., t = 0) was 0.59%. For the same compound, the “% aglycone” value [1, 16] was 0.58%, the “% bis-anhydro” value [1, 16] was 0.50% and the “% aglycone” value [1, 17] was 0.58%. The “% bis-anhydro” value [1, 17] was 0.74%, the “% aglycone” value [1, 18] was 0.58% and the “% bis-anhydro” value [1, 18] was 1.33%. The “% aglycone” value ([1]; NH3 1% mol, pH 6.56, 4° C., t = 0) was 0.59%, the “% aglycone” value [1, 19] was 0.58% and the “% bis-anhydro” value [1, 19] was 2.37%. For the same compound, the “% aglycone” value [1, 20] was 0.58%, the “% bis-anhydro” value [1, 20] was 3.56% and the “% aglycone” value [1, 21] was 0.59%. The “% bis-anhydro” value [1, 21] was 8.03%, the “% aglycone” value ([1]; NH3 1% mol, pH 6.56, 20° C., t = 0) was 0.59% and the “% aglycone” value [1, 22] was 0.59%. For the same compound, the “% bis-anhydro” value [1, 22] was 0.63%, the “% aglycone” value [1, 23] was 0.59% and the “% bis-anhydro” value [1, 23] was 1.87%. For the same compound, the “% aglycone” value ([1]; NH3 3% mol, pH 6.69, 4° C., t = 0) was 0.59%, the “% aglycone” value [1, 24] was 0.60% and the “% bis-anhydro” value [1, 24] was 3.00%. The “% aglycone” value [1, 25] was 0.61%, the “% bis-anhydro” value [1, 25] was 13.46% and the “% aglycone” value ([1]; NH3 3% mol, pH 6.69, 20° C., t = 0) was 0.59%. For the same compound, the “% aglycone” value [1, 26] was 0.57%, the “% bis-anhydro” value [1, 26] was 0.11% and the “% aglycone” value [1, 27] was 0.57%. The “% bis-anhydro” value [1, 27] was 0.30%, the “% aglycone” value ([1]; dissolved as is, pH 5.66, 4° C., t = 0) was 0.59% and the “% aglycone” value [1, 28] was 0.57%. The “% bis-anhydro” value [1, 28] was 0.41%, the “% aglycone” value [1, 29] was 0.58% and the “% bis-anhydro” value [1, 29] was 0.84%. The “% aglycone” value [1, 30] was 0.58%, the “% bis-anhydro” value [1, 30] was 1.20% and the “% aglycone” value ([1]; dissolved as is, pH 5.66, 20° C., t = 0) was 0.59%. For the same compound, the “pH at which found to be most stable” value ([1]; lowest amount of aglycon and bis-anhydro impurities, constant over time even at 20° C.) was 3.5 and the “pH in a 0.5% w/v solution in water” value [2] was 5.0-6.5.
